Data as given in patent publication US8841348B2, “Anti-inflammatory formulation” (AKL Inflammatory Limited, priority 2005, dated 2014).

Assay: Applicant's clinical observation of paeonol and apocynin alone versus together
Format: in vivo
Conditions: used on their own
Description: The applicant has noted that the effect of the combination of paeonol and apocynin together is rather better than would have been expected from studies using either of these alone.

Row | SMILES | anti-inflammatory and/or analgesic activity
1 | COc1cc(C(C)=O)ccc1O [apocynin, 4-hydroxy-3-methoxyacetophenone] | did not show anti-inflammatory and/or analgesic activity that could be clinically observed
2 | COc1ccc(C(C)=O)c(O)c1 [paeonol, 2-hydroxy-4-methoxy-acetophenone] | did not show anti-inflammatory and/or analgesic activity that could be clinically observed
